From patent publication US9228178B2, “Engineering of xylose reductase and overexpression of xylitol dehydrogenase and xylulokinase improves xylose alcoholic fermentation in the thermotolerant yeast Hansenula polymorpha” (Archer Daniels Midland Co., priority 2008, dated 2016)

Key:
[1] = biological target: T1, Hansenula polymorpha xylose reductase (XR) variant XRm, K341R N343D, cofactor binding site SEQ ID NO: 2 (Ogataea polymorpha, UniProt A0A1B7SLF1, K271R/N273D); test: KM towards NADPH or NADH of engineered xylose reductase (XRm), spectrophotometric XR assay in cell extract; conditions: XRm vs native XR
T1 sequence (A0A1B7SLF1 with tags, fused parts or gaps K271R/N273D): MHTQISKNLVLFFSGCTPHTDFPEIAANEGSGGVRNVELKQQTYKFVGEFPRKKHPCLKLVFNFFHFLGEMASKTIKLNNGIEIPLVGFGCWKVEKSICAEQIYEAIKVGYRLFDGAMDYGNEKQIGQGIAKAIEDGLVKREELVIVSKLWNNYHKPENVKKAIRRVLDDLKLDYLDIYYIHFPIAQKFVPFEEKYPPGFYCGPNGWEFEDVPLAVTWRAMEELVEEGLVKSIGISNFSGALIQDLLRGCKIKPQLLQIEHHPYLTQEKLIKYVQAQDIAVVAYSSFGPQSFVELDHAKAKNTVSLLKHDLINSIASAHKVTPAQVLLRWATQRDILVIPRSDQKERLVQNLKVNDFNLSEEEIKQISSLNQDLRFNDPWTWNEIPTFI
Description: The XR activity in cell extracts was determined spectrophotometrically at 37° C. […] The reaction was started with cell extract addition.
Biochemical properties of XR in one of constructed recombinant strains (designated XRm) were studied.

[2] = biological target: T2, Hansenula polymorpha xylose reductase (XR), native (XRn), cofactor binding site SEQ ID NO: 1 (Ogataea polymorpha, UniProt A0A1B7SLF1); test: KM towards NADPH or NADH of native xylose reductase (XRn), spectrophotometric XR assay in cell extract; assay type: biochemical; conditions: dual cofactor specificity
T2 construct: native XYL1 ORF from CBS4732 genomic DNA, HpGAP promoter (pX1N-Z), overexpressed in H. polymorpha Δxyl1; cell extract
T2 sequence (A0A1B7SLF1 with tags, fused parts or gaps): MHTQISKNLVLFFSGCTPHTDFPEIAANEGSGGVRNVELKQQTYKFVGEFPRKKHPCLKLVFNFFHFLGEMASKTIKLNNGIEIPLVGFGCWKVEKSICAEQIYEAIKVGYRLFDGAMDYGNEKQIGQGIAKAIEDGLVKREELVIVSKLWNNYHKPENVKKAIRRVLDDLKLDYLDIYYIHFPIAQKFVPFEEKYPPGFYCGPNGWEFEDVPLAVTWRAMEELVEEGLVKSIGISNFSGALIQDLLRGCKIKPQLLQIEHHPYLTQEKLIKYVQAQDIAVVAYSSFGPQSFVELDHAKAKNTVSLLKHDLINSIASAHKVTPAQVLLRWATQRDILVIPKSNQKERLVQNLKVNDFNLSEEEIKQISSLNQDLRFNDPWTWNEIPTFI
Description: (§1) The XR activity in cell extracts was determined spectrophotometrically at 37° C. […] The reaction was started with cell extract addition [3].

[3] = substrate: NC(=O)C1=CN([C@@H]2O[C@H](COP(=O)(O)OP(=O)(O)OC[C@H]3O[C@@H](n4cnc5c(N)ncnc54)[C@H](O)[C@@H]3O)[C@@H](O)[C@H]2O)C=CC1; test: cells, lysate or membranes; conditions: other: XRm, 37° C., pH 7.0, xylose 350 mM, NADH 20-150 μM
Description: as §1

[4] = substrate: NC(=O)C1=CN([C@@H]2O[C@H](COP(=O)(O)OP(=O)(O)OC[C@H]3O[C@@H](n4cnc5c(N)ncnc54)[C@H](OP(=O)(O)O)[C@@H]3O)[C@@H](O)[C@H]2O)C=CC1; test: cells, lysate or membranes; conditions: xylose as substrate, 37° C., pH 7.0, xylose 350 mM, NADPH 20-150 μM

NC(=O)C1=CN([C@@H]2O[C@H](COP(=O)(O)OP(=O)(O)OC[C@H]3O[C@@H](n4cnc5c(N)ncnc54)[C@H](O)[C@@H]3O)[C@@H](O)[C@H]2O)C=CC1 [NADH]
KM for NADH, compared with native XR (in words) [1]: remained nearly unchanged

NC(=O)C1=CN([C@@H]2O[C@H](COP(=O)(O)OP(=O)(O)OC[C@H]3O[C@@H](n4cnc5c(N)ncnc54)[C@H](OP(=O)(O)O)[C@@H]3O)[C@@H](O)[C@H]2O)C=CC1 [NADPH]
cofactor preference for NADPH (over NADH) [2]: > 10 fold | KM for NADPH, change against native XR (in words) [1]: significant increase | KM for NADPH, times higher than the KM for NADPH of the native XR ([1]; xylose as substrate): 17 times

B1: Hansenula polymorpha xylose reductase (XR) variant XRm, K341R N343D, cofactor binding site SEQ ID NO: 2 (Ogataea polymorpha; K271R/N273D) (protein)
chain: MHTQISKNLVLFFSGCTPHTDFPEIAANEGSGGVRNVELKQQTYKFVGEFPRKKHPCLKLVFNFFHFLGEMASKTIKLNNGIEIPLVGFGCWKVEKSICAEQIYEAIKVGYRLFDGAMDYGNEKQIGQGIAKAIEDGLVKREELVIVSKLWNNYHKPENVKKAIRRVLDDLKLDYLDIYYIHFPIAQKFVPFEEKYPPGFYCGPNGWEFEDVPLAVTWRAMEELVEEGLVKSIGISNFSGALIQDLLRGCKIKPQLLQIEHHPYLTQEKLIKYVQAQDIAVVAYSSFGPQSFVELDHAKAKNTVSLLKHDLINSIASAHKVTPAQVLLRWATQRDILVIPRSDQKERLVQNLKVNDFNLSEEEIKQISSLNQDLRFNDPWTWNEIPTFI
Km [3]: 112 µM | Km ([4]; other: XRm): 152 µM

B2: Hansenula polymorpha xylose reductase (XR), native (XRn), cofactor binding site SEQ ID NO: 1 (Ogataea polymorpha) (protein)
chain: MHTQISKNLVLFFSGCTPHTDFPEIAANEGSGGVRNVELKQQTYKFVGEFPRKKHPCLKLVFNFFHFLGEMASKTIKLNNGIEIPLVGFGCWKVEKSICAEQIYEAIKVGYRLFDGAMDYGNEKQIGQGIAKAIEDGLVKREELVIVSKLWNNYHKPENVKKAIRRVLDDLKLDYLDIYYIHFPIAQKFVPFEEKYPPGFYCGPNGWEFEDVPLAVTWRAMEELVEEGLVKSIGISNFSGALIQDLLRGCKIKPQLLQIEHHPYLTQEKLIKYVQAQDIAVVAYSSFGPQSFVELDHAKAKNTVSLLKHDLINSIASAHKVTPAQVLLRWATQRDILVIPKSNQKERLVQNLKVNDFNLSEEEIKQISSLNQDLRFNDPWTWNEIPTFI
Km ([4]; other: native XR): 9 µM
